In ChEMBL document CHEMBL1153150, “Synthesis and structure-activity relationship of novel lactam-fused chroman derivatives having dual affinity at the 5-HT(1A) receptor and the serotonin transporter” (Bioorg Med Chem Lett, 2010):

What was measured:
[1] = target: T1, 5-hydroxytryptamine receptor 1A (Homo sapiens, UniProt P08908); assay: Displacement of [3H][…] from human 5HT1A receptor expressed in CHO cells; type: cell-based
T1 sequence (P08908 whole entry): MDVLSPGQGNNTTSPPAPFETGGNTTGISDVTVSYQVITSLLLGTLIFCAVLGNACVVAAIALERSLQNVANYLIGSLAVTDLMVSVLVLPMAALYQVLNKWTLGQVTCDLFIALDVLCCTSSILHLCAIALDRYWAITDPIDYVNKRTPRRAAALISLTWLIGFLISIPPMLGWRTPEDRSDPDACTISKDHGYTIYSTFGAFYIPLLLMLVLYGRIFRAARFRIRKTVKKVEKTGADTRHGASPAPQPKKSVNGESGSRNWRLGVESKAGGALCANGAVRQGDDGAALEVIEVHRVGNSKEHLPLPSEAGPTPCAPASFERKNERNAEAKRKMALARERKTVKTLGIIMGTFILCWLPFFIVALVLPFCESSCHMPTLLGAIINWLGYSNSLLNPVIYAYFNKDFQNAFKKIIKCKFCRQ

[2] = target: T2, 5-hydroxytryptamine receptor 1A (Homo sapiens) (UniProt P08908); assay: Agonist activity at human 5HT1A receptor expressed in CHO cells by [35S]GTPgammaS binding assay; type: functional, cell-based
T2 sequence (whole entry): T1 sequence (P08908 whole entry)

[3] = target: T1, 5-hydroxytryptamine receptor 1A; assay: Agonist activity at human 5HT1A receptor expressed in CHO cells assessed as inhibition of forskolin-induced adenylate cyclase activity; type: functional, cell-based
[4] = target: Sodium-dependent serotonin transporter (Homo sapiens, UniProt P31645); assay: Displacement of labeled paroxetine from 5-HT transporter
Sodium-dependent serotonin transporter, sequence (P31645 whole entry): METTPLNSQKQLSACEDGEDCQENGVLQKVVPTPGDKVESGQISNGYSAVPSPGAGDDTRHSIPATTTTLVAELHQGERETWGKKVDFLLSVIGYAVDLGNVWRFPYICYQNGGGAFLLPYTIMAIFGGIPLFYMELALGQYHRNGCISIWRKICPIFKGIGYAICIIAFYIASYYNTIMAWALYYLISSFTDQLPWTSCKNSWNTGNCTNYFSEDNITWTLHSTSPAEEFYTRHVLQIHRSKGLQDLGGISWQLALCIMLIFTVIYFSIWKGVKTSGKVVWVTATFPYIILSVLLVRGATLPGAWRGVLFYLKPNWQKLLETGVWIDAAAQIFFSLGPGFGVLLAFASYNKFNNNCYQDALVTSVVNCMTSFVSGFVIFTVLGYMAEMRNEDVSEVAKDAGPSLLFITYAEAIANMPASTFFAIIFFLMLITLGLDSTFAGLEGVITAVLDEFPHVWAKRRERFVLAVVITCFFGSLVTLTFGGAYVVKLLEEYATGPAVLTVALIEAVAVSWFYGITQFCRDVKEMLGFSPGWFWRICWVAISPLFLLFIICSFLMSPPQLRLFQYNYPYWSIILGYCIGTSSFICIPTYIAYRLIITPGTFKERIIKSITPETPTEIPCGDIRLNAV

Row | Compound | Ki [1] [µM] | Emax [2] [%] | EC50 [3] [µM] | Ki [4] [µM] | IC50 [3] [µM]
1 | O=C1NCCc2cc(F)c3c(c21)CC(N(CCCc1c[nH]c2ccc(F)cc12)CC1CC1)CO3 (racemic) | 0.05 | 62 | 0.101 | 0.112 | 
2 | CC(C)N(CCCc1c[nH]c2ccc(F)cc12)C1COc2ccc3c(c2C1)C(=O)NCC3 (racemic) | 0.129 | 94 | 0.252 | 0.008 | 
3 | CCCN(CCCc1c[nH]c2ccc(F)cc12)C1COc2ccc3c(c2C1)C(=O)NCC3 (racemic) | 0.013 | 100 | 0.034 | 0.061 | 
4 | O=C1NCc2ccc3c(c21)CC(N(CCCc1c[nH]c2ccc(F)cc12)C(=O)c1ccccc1)CO3 (racemic) | 0.085 | 96 | 0.436 | 0.031 | 
5 | O=C1NCCc2ccc3c(c21)CC(N(CCCc1c[nH]c2ccc(F)cc12)C1CCC1)CO3 (racemic) | 0.095 | 77 | 0.054 | 0.028 | 
6 | CC(C)CN(CCCc1c[nH]c2ccc(F)cc12)C1COc2ccc3c(c2C1)C(=O)NCC3 (racemic) | 0.927 |  |  | 0.184 | 
7 | O=C1NCc2ccc3c(c21)CC(NCCCc1c[nH]c2ccc(F)cc12)CO3 (racemic) | 0.024 | 100 | 0.062 | 0.008 | 
8 | CCN(CCCc1c[nH]c2ccc(F)cc12)C1COc2c(F)cc3c(c2C1)C(=O)NCC3 (racemic) | 0.004 | 92 | 0.01 | 0.015 | 
9 | O=C1NCc2ccc3c(c21)CC(NCCCCc1c[nH]c2ccc(F)cc12)CO3 (racemic) | 0.022 | 96 | 0.284 | 0.02 | 
10 | O=C1NCCc2cc(F)c3c(c21)CC(NCCCc1c[nH]c2ccc(F)cc12)CO3 (racemic) | 0.006 | 98 | 0.004 | 0.027 | 
11 | CN(CCCc1c[nH]c2ccc(F)cc12)C1COc2ccc3c(c2C1)C(=O)NCC3 (racemic) | 0.023 | 99 | 0.026 | 0.017 | 
12 | O=C1NCCc2ccc3c(c21)CC(N(CCCc1c[nH]c2ccc(F)cc12)CCC(F)(F)F)CO3 (racemic) | 0.966 |  |  | 0.34 | 
13 | O=C1NCCc2ccc3c(c21)CC(NCCCc1c[nH]c2ccc(F)cc12)CO3 (racemic) | 0.044 | 87 | 0.025 | 0.01 | 
14 | O=C1NCCc2ccc3c(c21)CC(N(CCCc1c[nH]c2ccc(F)cc12)C(=O)c1ccccc1)CO3 (racemic) | 1.22 |  |  | 0.671 | 

The next lines start with the values.

Row | Ki [1] [µM] | Emax [2] [%] | EC50 [3] [µM] | Ki [4] [µM] | IC50 [3] [µM] | Compound
15 | 0.019 | 87 | 0.049 | 0.139 |  | O=C1NCc2ccc3c(c21)CC(N(CCCCc1c[nH]c2ccc(F)cc12)CC1CC1)CO3 (racemic)
16 | 0.101 |  | 0.35 | 0.063 |  | O=C1NCc2ccc3c(c21)CC(N(CCCc1c[nH]c2ccc(F)cc12)C1CCC1)CO3 (racemic)
17 | 0.022 | 80 | 0.075 | 0.009 |  | CN(CCCc1c[nH]c2ccc(F)cc12)C1COc2ccc3c(c2C1)C(=O)NC3 (racemic)
18 | 0.002 | 78 | 0.028 | 0.008 |  | CCN(CCCc1c[nH]c2ccc(F)cc12)C1COc2ccc3c(c2C1)C(=O)NC3 (racemic)
19 | 0.019 | 91 | 0.036 | 0.026 |  | O=C1NCCc2ccc3c(c21)CC(N(CCCc1c[nH]c2ccc(F)cc12)CC1CC1)CO3 (racemic)
20 |  |  |  | 0.617 |  | CC(C)CN(CCCc1c[nH]c2ccc(F)cc12)C1COc2ccc3c(c2C1)C(=O)NC3 (racemic)
21 | 0.006 | 97 | 0.009 | 0.03 |  | CCN(CCCc1c[nH]c2ccc(F)cc12)C1COc2ccc3c(c2C1)C(=O)NCC3 (racemic)
22 | 0.004 |  |  | 0.025 | 0.063 | N#Cc1ccc2[nH]cc(CCCCN(CC3CC3)C3COc4ccc5c(c4C3)C(=O)NC5)c2c1 (racemic) [listing 1 of 2 here]
23 |  |  |  | 1.24 |  | O=C1NCc2ccc3c(c21)CC(N(CCCc1c[nH]c2ccc(F)cc12)CC1CCCCC1)CO3 (racemic)
24 | 0.036 | 91 | 0.022 | 0.013 |  | N#Cc1ccc2[nH]cc(CCCNC3COc4ccc5c(c4C3)C(=O)NC5)c2c1 (racemic)
25 | 0.006 |  |  | 0.015 | 0.223 | O=C1NCc2ccc3c(c21)CC(N(CCCc1c[nH]c2ccc(F)cc12)CC1CC1)CO3 (racemic) [listing 1 of 2 here]
26 |  | 0 |  |  |  | N#Cc1ccc2[nH]cc(CCCCN(CC3CC3)C3COc4ccc5c(c4C3)C(=O)NC5)c2c1 (racemic) [listing 2 of 2 here]
27 |  | 0 |  |  |  | O=C1NCc2ccc3c(c21)CC(N(CCCc1c[nH]c2ccc(F)cc12)CC1CC1)CO3 (racemic) [listing 2 of 2 here]
28 | 0.031 |  | 0.019 | 0.012 |  | N#Cc1ccc2[nH]cc(CCCCN(CC3CC3)C3COc4ccc5c(c4C3)C(=O)NC5)c2c1 (single isomer, unassigned; (+)) [listing 1 of 2 here]
29 |  | 100 |  |  |  | N#Cc1ccc2[nH]cc(CCCCN(CC3CC3)C3COc4ccc5c(c4C3)C(=O)NC5)c2c1 (single isomer, unassigned; (+)) [listing 2 of 2 here]
30 | 0.01 |  |  | 0.017 | 0.203 | N#Cc1ccc2[nH]cc(CCCCN(CC3CC3)C3COc4ccc5c(c4C3)C(=O)NC5)c2c1 (single isomer, unassigned; (-)) [listing 1 of 2 here]
31 | 0.008 |  |  | 0.006 | 0.32 | O=C1NCc2ccc3c(c21)CC(N(CCCc1c[nH]c2ccc(F)cc12)CC1CC1)CO3 (single isomer, unassigned; (-)) [listing 1 of 2 here]
32 |  | 0 |  |  |  | N#Cc1ccc2[nH]cc(CCCCN(CC3CC3)C3COc4ccc5c(c4C3)C(=O)NC5)c2c1 (single isomer, unassigned; (-)) [listing 2 of 2 here]
33 |  | 0 |  |  |  | O=C1NCc2ccc3c(c21)CC(N(CCCc1c[nH]c2ccc(F)cc12)CC1CC1)CO3 (single isomer, unassigned; (-)) [listing 2 of 2 here]
34 | 0.003 |  | 0.024 | 0.005 |  | O=C1NCc2ccc3c(c21)CC(N(CCCc1c[nH]c2ccc(F)cc12)CC1CC1)CO3 (stereo in doubt; (+)-46) [listing 1 of 2 here]
35 |  | 84 |  |  |  | O=C1NCc2ccc3c(c21)CC(N(CCCc1c[nH]c2ccc(F)cc12)CC1CC1)CO3 (stereo in doubt; (+)-46) [listing 2 of 2 here]
